Activity calls are given as the source filed them.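 The calls were made as follows: active = mean IC50 for reducing PEG3 promoter reporter signal at or below a set limit, with IC50 above the limit in both counter screens; inactive = the rest, including counter screen hits.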
Experiments:
[1] = system: PEG-3; experiment: Peg3 promoter luciferase inhibitors, potency, dose response, cell-based, HeLa, CREF/GAPDH counter-screen panel (AID 624167); conditions: HeLa PEG-Prom luciferase reporter, overnight, CREF/GAPDH counter-screens
[2] = biological target: PEG-3 (UniProt Q6IN02); experiment: as above; conditions: HeLa PEG-Prom luciferase reporter, overnight, CREF/GAPDH counter-screens, mean of runs
[3] = run 1, dose range 1, individual replicate IC50 per panel
[4] = run 2, dose range 1, individual replicate IC50 per panel

Sequence of PEG-3 (UniProt Q6IN02) (Q6IN02 whole entry, looked up): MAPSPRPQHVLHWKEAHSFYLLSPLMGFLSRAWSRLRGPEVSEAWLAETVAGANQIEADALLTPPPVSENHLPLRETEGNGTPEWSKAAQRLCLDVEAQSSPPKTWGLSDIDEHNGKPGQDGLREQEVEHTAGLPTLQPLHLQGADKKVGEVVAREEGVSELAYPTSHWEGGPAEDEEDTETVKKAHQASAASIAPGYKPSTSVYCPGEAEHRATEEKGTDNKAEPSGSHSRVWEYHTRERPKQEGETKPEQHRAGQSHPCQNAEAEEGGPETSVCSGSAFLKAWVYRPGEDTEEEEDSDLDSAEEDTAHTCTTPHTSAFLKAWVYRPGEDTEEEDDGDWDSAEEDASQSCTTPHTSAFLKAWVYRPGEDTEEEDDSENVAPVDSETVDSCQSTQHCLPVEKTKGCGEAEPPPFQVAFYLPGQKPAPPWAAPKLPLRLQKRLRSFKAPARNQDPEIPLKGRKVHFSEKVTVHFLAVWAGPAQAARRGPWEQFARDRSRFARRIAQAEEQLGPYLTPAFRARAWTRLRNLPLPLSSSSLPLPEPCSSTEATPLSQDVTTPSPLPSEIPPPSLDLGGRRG

Row | SMILES | IC50 [1, 3] [µM] | IC50 [1, 4] [µM] | IC50 [2]
1 | CC1=CC2OC3CC4OC(=O)C=CC=CC(C(C)O)OCC(O)C(C)CC(=O)OCC2(CC1O)C4(C)C31CO1 (stereo not given) | < 0.2 | < 0.2 | < 0.2 µM
2 | COc1ccc(C(c2nnnn2-c2c(C)cccc2C)N2CCC(n3c(=O)[nH]c4ccccc43)CC2)cc1 (stereo not given) | 11.4 | 11.3 | 11.3 µM
3 | FC(F)Sc1ccc(NC(=S)NC(c2ccccc2)c2ccccc2)cc1 | 19.9 | 16 | 18 µM
4 | Cc1ccc(-c2nnc(N3CCN(c4ccccn4)CC3)c3ccccc23)cc1 | 20.9 | 15.4 | 18.2 µM
5 | O=S(=O)(Nc1cccc2cccnc12)c1ccccc1 | > 100 | 7.43 | inactive
6 | Oc1cccc(C(Nc2nccs2)c2ccc3cccnc3c2O)c1 (stereo not given) | > 100 | 31.1 | inactive
7 | CC1(C(=O)NCc2cccc3ccccc23)CCN1C(=O)Cc1ccc(-c2ccccc2)cc1 (stereo not given) | 10.3 | > 100 | inactive
8 | COc1cccc(C(=O)O/N=C(\N)c2ccccn2)c1 | 15.2 | 7.08 | 11.1 µM
9 | Cc1nc(N2CCN(c3ccccc3O)CC2)c2c(-c3ccccc3)csc2n1 | 29 | 24.6 | inactive
10 | CN(CC(=O)Nc1ccc(Cl)c(C(F)(F)F)c1)C(=O)c1cc(-c2ccncc2)nc2ccccc12 | 16.2 | 15.9 | 16.1 µM
11 | Cc1ccc(-n2cc(CNCCCn3ccnc3C)c(-c3ccc(F)cc3)n2)cc1 | 15.5 | 10.6 | 13 µM
12 | COc1cc(NC(=O)c2c(F)c(F)c(F)c(F)c2F)c(OC)cc1Cl | 23.7 | 15.9 | 19.8 µM
13 | N/C(=N\OC(=O)c1ccccc1)C(C(=O)NOC(=O)c1ccccc1)C1CCCCC1 (stereo not given) | 24.5 | > 100 | inactive
14 | CCn1cc(CN2CCC(C(=O)Nc3cccc(-c4cccc(Cl)c4)c3)CC2)c(C)n1 | 17.7 | 11.2 | 14.5 µM
15 | CCc1ccc(O)c(CNCCNCc2cc(CC)ccc2O)c1 | 20.6 | 16.4 | 18.5 µM
16 | COc1ccccc1CN(C)C(=O)c1cc(-c2cccs2)nc2ccccc12 | 14.3 | 12.7 | 13.5 µM
17 | c1cc2c3c(cccc3c1)NC1(CCC3(CC1)Nc1cccc4cccc(c14)N3)N2 | 18.4 | 44.7 | inactive
18 | O=C(Nc1ccc(S(=O)(=O)NC2=NCCCCC2)cc1)c1ccc([N+](=O)[O-])s1 | 19.2 | 11.7 | 15.4 µM
19 | CCCCCCSc1cc(-c2nc3ccc(C)cn3c2NCCCC)ccc1OC | 21.4 | 11 | 16.2 µM
20 | CS(=O)(=O)c1ccc2nc(NC(=O)CCS(=O)(=O)c3ccccc3)sc2c1 | > 100 | 18.9 | inactive
21 | O=C(Nc1cccc(-c2cccc(Cl)c2)c1)C1CCN(C2CCC2)CC1 | 18.9 | 14.9 | 16.9 µM
22 | COc1cccc(/C=C2/Sc3ccc(C(=O)NCCCN4CCCC4)cc3NC2=O)c1 | 21.4 | 12.8 | 17.1 µM

Row | SMILES | IC50 [1, 3] [µM] | IC50 [1, 4] [µM] | IC50 [2]
23 | Cc1c(CCOC(=O)C23CC4CC(CC(C)(C4)C2)C3)sc[n+]1CC(=O)c1ccccc1 | 21.8 | 21.7 | inactive
24 | Cc1ccc(N(Cc2cc(=O)[nH]c3ccccc23)C(=O)CCl)c(C)c1 | 22.9 | 29.4 | inactive
25 | Cc1cccc(CN2C(=O)[C@H]3Cc4c([nH]c5ccccc45)C(C)(C)N3C2=O)c1 | 29.9 | 28.6 | inactive
26 | Cc1cc(C(=O)COC(=O)c2ccccc2Br)c(C)n1CC1CCCO1 (stereo not given) | 3.07 | 98.5 | inactive
27 | CCCC(=O)N1CCCC(c2cc(C(=O)Nc3ccccc3)no2)C1 (stereo not given) | 8.68 | 14.3 | 11.5 µM
28 | CC(C)CC(NS(=O)(=O)OCC(Cl)(Cl)Cl)c1ccccc1 (stereo not given) | 47.6 | 17.5 | inactive
29 | CN(C)CCCNc1ncnc2oc(-c3ccccc3)c(-c3ccccc3)c12 | 16.6 | 14.8 | 15.7 µM
30 | Cc1noc(-c2ccc(Cl)cc2)c1C(=O)O/N=C(\N)c1ccc(C(C)(C)C)cc1 | 17.3 | 9.17 | 13.2 µM
31 | CCN1CCN(Cc2ccc(NC(=O)c3cc(NC(=O)c4ccno4)cc(OC)c3)cc2C(F)(F)F)CC1 | 40.6 | 45.3 | inactive
32 | CCOc1cc(/C=N/Nc2nc(-c3cccc(S(=O)(=O)N4CCCC4)c3)cs2)ccc1O | 22.3 | 60.1 | inactive
33 | CN(Cc1ccccc1)C(=O)c1ccc(Nc2nc(C(N)Cc3ccccc3)cs2)nc1 (stereo not given) | 21.8 | 14.8 | 18.3 µM
34 | COc1ccccc1CCNC(=O)C1CCN(c2nnc(C)c3c(C)n(-c4ccc(C)cc4)nc23)CC1 | 19.4 | 24.1 | inactive
35 | CN1CCC(NC(=O)c2cc(-c3cccc(Br)c3)nc3ccccc23)CC1 | 20.9 | 15.1 | 18 µM
36 | C/C(=N\N=C(N)N)c1ccc(Cl)cc1Cl | 18.7 | 17.2 | 18 µM
37 | Cc1cc(-n2c(SCC(=O)Nc3ccc(F)c(F)c3)nc3n[nH]c(C)c3c2=N)ccc1Cl | 41 | 30.3 | inactive
38 | CN(C)C(=O)c1cccc(-c2cnc3c(NC=O)cc(-c4cccc(C(F)(F)F)c4)cn23)c1 | 11.6 | 20.3 | 16 µM
39 | N#Cc1ccc(Cn2cc(C=O)c3ccccc32)cc1 | 31.6 | 24.6 | inactive
40 | O=C(c1ccoc1)N1CCN(c2cc(-c3ccccc3)nc3cc(-c4ccccc4)nn23)CC1 | 13.3 | 9.7 | 11.5 µM
41 | COc1ccc(-c2cc(C(=O)N(C)Cc3cccc(OC)c3OC)c3ccccc3n2)cc1OC | 12.7 | 71.2 | inactive
42 | CCN(CC)CCCCNc1ncc2cc(-c3cc(OC)cc(OC)c3)c(NC(=O)NC(C)(C)C)nc2n1 | 21 | 20.9 | inactive
43 | OCCN1CCN(C2CCC(c3ccc(F)cc3)c3ccc(F)cc32)CC1 (stereo not given) | 20.4 | 23 | inactive
44 | COc1cc(/C=C/c2ccc3cccc(O)c3n2)ccc1O | > 100 | > 100 | > 100 µM (inactive)

Row | SMILES | IC50 [1, 3] [µM] | IC50 [1, 4] [µM] | IC50 [2]
45 | CN(C)CCNc1ncnc2c1ncn2[C@H]1CN(Cc2ccc(-c3ccccc3)cc2)C[C@@H](CO)O1 | 30.7 | 17.4 | inactive
46 | O=Cc1cn(Cc2ccc([N+](=O)[O-])cc2)c2ccccc12 | > 100 | > 100 | > 100 µM (inactive)
47 | CC1(Cc2ccc(Cl)c(Cl)c2)C(=O)Nc2ccc(S(=O)(=O)NC3CCCCC3)cc21 (stereo not given) | 18.1 | 17.2 | 17.7 µM
48 | O=C1NC(Cc2ccc(O)cc2)c2nc3ccc(F)cc3c(=O)n2-c2cc3ccccc3cc21 (stereo not given) | 19.9 | 34.4 | inactive
49 | CCN1CCc2c(sc(NC(=O)c3ccc(S(=O)(=O)N4CCCCCC4)cc3)c2C(=O)NC)C1 | 21.2 | 24.5 | inactive
50 | Cc1ccccc1NC(=O)C(=Cc1ccc(C(=O)O)cc1)C(=O)Nc1ccccc1C | 37.3 | 74.4 | inactive
51 | CCCn1c(=N)n(CC(=O)c2ccc(Cl)cc2)c2ccccc21 | 19.1 | 49.4 | inactive
52 | Cc1ccc(S(=O)(=O)CCSC(=N)N)cc1 | 36.6 | 42.7 | inactive
53 | O=C(Nc1ccccc1)c1nc[nH]c1C(=O)NCCCNC(=O)c1[nH]cnc1C(=O)Nc1ccccc1 | 17.2 | > 100 | inactive
54 | CC(=O)Nc1cccc(NC(=O)c2cc(-c3cccnc3)nc3ccc(Cl)cc23)c1 | 50.2 | 59.2 | inactive
55 | Cc1ccc(S(=O)(=O)N2CCCCC2)cc1C(=O)N(C)CC(=O)Nc1ccc(Cl)c(C(F)(F)F)c1 | 45.1 | 42.7 | inactive
56 | COc1cc(-c2cc(C(=O)Nc3cc(S(=O)(=O)N4CCOCC4)ccc3C)c3ccccc3n2)cc(OC)c1OC | 11.1 | 12.5 | 11.8 µM
57 | Cc1ccc(NC(=O)Nc2ccnc(-c3cccnc3)n2)cc1 | > 100 | > 100 | > 100 µM (inactive)
58 | CC(C(=O)NC1CCCC1)N(C(=O)Cn1nnc(-c2ccc(F)cc2)n1)c1ccccc1F (stereo not given) | 22.9 | 69.9 | inactive
59 | CCC1CCCCN1S(=O)(=O)c1ccc(C(=O)N(CCCN(C)C)c2nc3cc4c(cc3s2)OCO4)cc1 (stereo not given) | 21.9 | 49.9 | inactive
60 | Cc1ccsc1C(=O)OCC(=O)c1cc(C)n(CC2CCCO2)c1C (stereo not given) | 11.8 | 18 | 14.9 µM
61 | CC1(C)C(=O)C=CC(=O)C(C)(C)C(=O)C=CC(=O)C(C)(C)C2=CC=C(O2)C(C)(C)C(=O)C=CC1=O | 16.6 | 11.8 | 14.2 µM
62 | Cc1ccc(-n2cc(-c3ccccc3)c3c(N4CCOCC4)ncnc32)cc1 | 10.8 | 25.7 | 18.2 µM
63 | CN(C)CCCN1c2ccccc2Sc2ccc3ccccc3c21 | 17.7 | 16 | 16.9 µM
64 | CC1(C)Oc2cc3oc(-c4cc(O)cc(O)c4)cc3cc2CC1O (stereo not given) | 37.1 | 13.7 | inactive
65 | CC(Cc1ccccc1)NCCC(c1ccccc1)c1ccccc1 (stereo not given) | 19.9 | 19.1 | 19.5 µM
